Here are results for three molecules from ChEMBL document CHEMBL5696442, “Discovery of type II inhibitors of TGFβ-activated kinase 1 (TAK1) and mitogen-activated protein kinase kinase kinase kinase 2 (MAP4K2)” (J Med Chem, 2015).

Activity calls are given as the source filed them. No cut-off for these calls is given here.

In assay [1] the target is 5'-AMP-activated protein kinase catalytic subunit alpha-1 (Homo sapiens) (UniProt Q13131). As to the kind of experiment: Inhibition of AMPKa1 ATP Loop labeling site in human A-375 cells at 5 uM by KiNativ Profiling analysis relative to control. It counts as cell-based.
The target of assay [2] is Phosphatidylinositol 4-kinase beta (Homo sapiens) (UniProt Q9UBF8). Briefly: Inhibition of PI4KB ATP labeling site harbouring VPHTQAVVLNSKDKAPYLIYVEVLECENFDTTSVPAR in human A-375 cells at 0.05 uM by KiNativ Profiling analysis relative to control. In kind it is cell-based.
Assay [3] has as its target Focal adhesion kinase 1 (Homo sapiens) (UniProt Q05397). As to the kind of experiment: Inhibition of FAK (unknown origin) at 10 uM by Ambit Kinomescan binding assay relative to control.
In assay [4] the target is Tyrosine-protein kinase Fyn (Homo sapiens) (UniProt P06241). As to the kind of experiment: Inhibition of FYN ACT labeling site in human Huh-7 cells at 1 uM by KiNativ Profiling analysis relative to control. It counts as cell-based.
In assay [5] the target is SRSF protein kinase 3 (Homo sapiens) (UniProt Q9UPE1). Briefly: Inhibition of SRPK3 (unknown origin) at 10 uM by Ambit Kinomescan binding assay.
For assay [6], the target named is Ephrin type-A receptor 8 (Homo sapiens) (UniProt P29322). Briefly: Inhibition of EPHA8 (unknown origin) at 10 uM by Ambit Kinomescan binding assay relative to control.
The target in assay [7] is Serine/threonine-protein kinase PAK 2 (Homo sapiens) (UniProt Q13177). As to the kind of experiment: Inhibition of PAK2 (unknown origin) at 10 uM by Ambit Kinomescan binding assay.
Assay [8] deals with LIM domain kinase 1 (Homo sapiens) (UniProt P53667). As to the kind of experiment: Inhibition of LIMK1 (unknown origin) at 10 uM by Ambit Kinomescan binding assay.
For assay [9], the target named is T1, Serine/threonine-protein kinase LATS2 (Homo sapiens) (UniProt Q9NRM7).
T1 sequence (whole entry): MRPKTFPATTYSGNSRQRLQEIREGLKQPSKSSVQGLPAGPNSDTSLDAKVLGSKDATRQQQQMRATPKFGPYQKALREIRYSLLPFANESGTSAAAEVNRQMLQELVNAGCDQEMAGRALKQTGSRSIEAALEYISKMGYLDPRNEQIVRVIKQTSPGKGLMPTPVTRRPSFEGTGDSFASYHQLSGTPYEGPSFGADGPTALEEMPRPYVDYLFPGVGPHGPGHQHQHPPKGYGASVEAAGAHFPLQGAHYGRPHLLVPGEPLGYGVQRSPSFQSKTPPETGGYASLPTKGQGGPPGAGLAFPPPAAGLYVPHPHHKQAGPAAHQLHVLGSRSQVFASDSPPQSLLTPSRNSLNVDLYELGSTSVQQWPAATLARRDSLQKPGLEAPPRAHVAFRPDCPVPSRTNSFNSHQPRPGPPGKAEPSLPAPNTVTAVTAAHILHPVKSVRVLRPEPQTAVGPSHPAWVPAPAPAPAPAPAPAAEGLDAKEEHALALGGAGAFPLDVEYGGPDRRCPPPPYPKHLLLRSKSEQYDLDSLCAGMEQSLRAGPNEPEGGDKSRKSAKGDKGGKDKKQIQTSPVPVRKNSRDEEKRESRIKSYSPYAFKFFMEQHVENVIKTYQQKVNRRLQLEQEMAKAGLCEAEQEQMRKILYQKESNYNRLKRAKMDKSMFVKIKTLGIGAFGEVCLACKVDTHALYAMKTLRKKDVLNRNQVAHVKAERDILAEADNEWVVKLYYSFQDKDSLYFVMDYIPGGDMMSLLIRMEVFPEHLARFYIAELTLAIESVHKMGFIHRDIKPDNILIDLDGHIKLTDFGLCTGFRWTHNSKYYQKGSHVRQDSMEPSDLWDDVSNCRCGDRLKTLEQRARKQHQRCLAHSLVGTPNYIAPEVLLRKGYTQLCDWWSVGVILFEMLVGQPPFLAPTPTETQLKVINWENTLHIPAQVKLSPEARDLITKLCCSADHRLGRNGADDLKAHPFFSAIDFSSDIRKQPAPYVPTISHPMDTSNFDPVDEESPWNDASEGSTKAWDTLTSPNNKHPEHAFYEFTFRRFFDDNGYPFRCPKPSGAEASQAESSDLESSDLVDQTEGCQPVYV
As to the kind of experiment: Inhibition of LATS2 Lys1 labeling site in human Huh-7 cell lysate at 1 uM by KiNativ Profiling analysis relative to control. It counts as subcellular.

The target in assay [10] is 5'-AMP-activated protein kinase catalytic subunit alpha-1 (Homo sapiens) (UniProt Q13131). Briefly: Inhibition of AMPKa1 Lys1 labeling site in human Huh-7 cells at 1 uM by KiNativ Profiling analysis relative to control. It counts as cell-based.
The target in assay [11] is T2, Serine/threonine-protein kinase D2 (Homo sapiens) (UniProt Q9BZL6).
T2 sequence (whole entry): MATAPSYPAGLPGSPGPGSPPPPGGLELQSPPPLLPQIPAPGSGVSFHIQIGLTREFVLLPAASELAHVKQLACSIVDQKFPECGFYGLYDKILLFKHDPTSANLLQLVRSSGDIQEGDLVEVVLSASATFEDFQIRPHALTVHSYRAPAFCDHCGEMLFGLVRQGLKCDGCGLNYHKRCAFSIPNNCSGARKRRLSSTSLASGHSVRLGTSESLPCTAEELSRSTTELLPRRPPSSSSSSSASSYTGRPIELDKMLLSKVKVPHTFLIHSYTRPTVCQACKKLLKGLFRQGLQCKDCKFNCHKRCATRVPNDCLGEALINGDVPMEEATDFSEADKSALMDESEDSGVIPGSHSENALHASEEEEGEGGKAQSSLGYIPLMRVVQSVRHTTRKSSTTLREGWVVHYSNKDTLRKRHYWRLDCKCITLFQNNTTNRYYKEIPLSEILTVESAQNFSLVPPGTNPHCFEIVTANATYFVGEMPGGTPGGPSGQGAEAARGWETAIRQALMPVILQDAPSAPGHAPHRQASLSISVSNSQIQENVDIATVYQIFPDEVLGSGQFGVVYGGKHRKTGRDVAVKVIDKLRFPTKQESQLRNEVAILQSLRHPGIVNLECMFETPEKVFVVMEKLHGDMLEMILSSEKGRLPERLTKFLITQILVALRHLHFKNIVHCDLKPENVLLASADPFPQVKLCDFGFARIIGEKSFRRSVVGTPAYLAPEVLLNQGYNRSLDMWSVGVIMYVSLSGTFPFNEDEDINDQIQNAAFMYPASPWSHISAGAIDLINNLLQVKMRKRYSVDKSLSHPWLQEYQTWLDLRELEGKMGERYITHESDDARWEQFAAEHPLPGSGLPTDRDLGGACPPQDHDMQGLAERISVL
As to the kind of experiment: Inhibition of PKD2 Lys2 labeling site in human Huh-7 cells at 1 uM by KiNativ Profiling analysis relative to control. It counts as cell-based.

For assay [12], the target named is Serine/threonine-protein kinase 4 (Homo sapiens) (UniProt Q13043). As to the kind of experiment: Inhibition of MST1 Lys1 labeling site harbouring AIHKETGQIVAIKQVPVESDLQEIIK in human Huh-7 cell lysate at 1 uM by KiNativ Profiling analysis relative to control.
Assay [13] concerns the target Serine/threonine-protein kinase Nek4 (Homo sapiens) (UniProt P51957). As to the kind of experiment: Inhibition of NEK4 Lys2 labeling site in human Huh-7 cells at 1 uM by KiNativ Profiling analysis relative to control. It counts as cell-based.

Sequence of 5'-AMP-activated protein kinase catalytic subunit alpha-1 (Homo sapiens) (Q13131 whole entry, looked up): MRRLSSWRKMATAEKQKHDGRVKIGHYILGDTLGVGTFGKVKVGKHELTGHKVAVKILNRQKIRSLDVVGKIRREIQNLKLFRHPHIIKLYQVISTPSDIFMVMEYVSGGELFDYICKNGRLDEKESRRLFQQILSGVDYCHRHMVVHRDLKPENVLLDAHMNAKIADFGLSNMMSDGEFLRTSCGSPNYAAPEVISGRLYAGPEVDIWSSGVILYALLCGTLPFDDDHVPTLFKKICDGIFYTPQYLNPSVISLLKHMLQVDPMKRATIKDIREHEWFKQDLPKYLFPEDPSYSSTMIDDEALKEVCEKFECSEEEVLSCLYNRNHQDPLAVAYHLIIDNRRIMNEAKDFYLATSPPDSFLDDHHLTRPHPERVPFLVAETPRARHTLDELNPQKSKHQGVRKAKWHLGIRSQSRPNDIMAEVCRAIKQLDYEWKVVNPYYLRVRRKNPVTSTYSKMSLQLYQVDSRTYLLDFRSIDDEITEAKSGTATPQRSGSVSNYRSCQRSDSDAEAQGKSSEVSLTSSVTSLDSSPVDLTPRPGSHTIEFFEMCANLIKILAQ
Sequence of Serine/threonine-protein kinase PAK 2 (Homo sapiens) (Q13177 whole entry, the tested form may be a part): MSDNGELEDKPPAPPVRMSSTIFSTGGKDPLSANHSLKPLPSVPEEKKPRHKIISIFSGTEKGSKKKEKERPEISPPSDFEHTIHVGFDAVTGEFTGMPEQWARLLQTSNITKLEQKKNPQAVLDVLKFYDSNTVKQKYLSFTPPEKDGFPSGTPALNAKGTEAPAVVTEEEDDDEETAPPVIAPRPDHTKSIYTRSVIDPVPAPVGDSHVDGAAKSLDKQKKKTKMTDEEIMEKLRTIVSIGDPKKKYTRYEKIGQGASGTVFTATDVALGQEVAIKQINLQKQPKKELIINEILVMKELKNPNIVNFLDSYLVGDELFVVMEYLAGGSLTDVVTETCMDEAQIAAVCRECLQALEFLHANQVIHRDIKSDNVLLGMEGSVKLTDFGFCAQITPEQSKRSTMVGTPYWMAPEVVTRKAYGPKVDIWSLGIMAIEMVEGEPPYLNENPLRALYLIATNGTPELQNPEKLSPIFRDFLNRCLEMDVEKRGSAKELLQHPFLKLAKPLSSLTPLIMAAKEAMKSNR
Sequence of Tyrosine-protein kinase Fyn (Homo sapiens) (P06241 2-537 limits assumed): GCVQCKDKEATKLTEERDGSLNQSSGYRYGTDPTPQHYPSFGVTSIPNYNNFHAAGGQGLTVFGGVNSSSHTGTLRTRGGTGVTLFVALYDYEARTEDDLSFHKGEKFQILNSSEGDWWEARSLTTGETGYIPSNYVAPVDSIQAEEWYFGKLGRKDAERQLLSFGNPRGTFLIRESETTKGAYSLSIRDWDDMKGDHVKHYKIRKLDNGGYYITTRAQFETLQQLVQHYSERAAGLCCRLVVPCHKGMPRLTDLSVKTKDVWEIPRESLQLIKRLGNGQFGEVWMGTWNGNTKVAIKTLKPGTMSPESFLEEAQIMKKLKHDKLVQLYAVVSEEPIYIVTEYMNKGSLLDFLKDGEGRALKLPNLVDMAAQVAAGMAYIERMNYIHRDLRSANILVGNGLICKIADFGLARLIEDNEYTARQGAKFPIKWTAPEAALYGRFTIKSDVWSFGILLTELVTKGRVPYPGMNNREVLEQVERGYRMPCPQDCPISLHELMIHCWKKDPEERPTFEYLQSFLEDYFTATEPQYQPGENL
Sequence of SRSF protein kinase 3 (Homo sapiens) (Q9UPE1 whole entry): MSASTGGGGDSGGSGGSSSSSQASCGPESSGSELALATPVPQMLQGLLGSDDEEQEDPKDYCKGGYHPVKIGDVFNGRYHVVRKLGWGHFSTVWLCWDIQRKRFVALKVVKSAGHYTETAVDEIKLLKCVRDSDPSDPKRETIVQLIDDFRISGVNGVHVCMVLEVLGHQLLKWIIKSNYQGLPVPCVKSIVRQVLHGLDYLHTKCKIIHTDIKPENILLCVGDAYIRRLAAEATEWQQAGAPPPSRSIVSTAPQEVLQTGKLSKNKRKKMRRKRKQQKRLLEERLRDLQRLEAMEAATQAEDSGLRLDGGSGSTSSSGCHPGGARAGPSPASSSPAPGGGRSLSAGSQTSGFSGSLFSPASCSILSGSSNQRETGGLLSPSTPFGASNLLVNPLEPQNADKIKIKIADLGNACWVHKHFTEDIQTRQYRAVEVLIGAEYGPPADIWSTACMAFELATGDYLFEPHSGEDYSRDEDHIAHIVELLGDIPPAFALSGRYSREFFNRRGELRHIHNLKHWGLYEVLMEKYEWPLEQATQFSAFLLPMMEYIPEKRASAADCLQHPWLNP
Sequence of Phosphatidylinositol 4-kinase beta (Homo sapiens) (Q9UBF8 2-816 limits assumed): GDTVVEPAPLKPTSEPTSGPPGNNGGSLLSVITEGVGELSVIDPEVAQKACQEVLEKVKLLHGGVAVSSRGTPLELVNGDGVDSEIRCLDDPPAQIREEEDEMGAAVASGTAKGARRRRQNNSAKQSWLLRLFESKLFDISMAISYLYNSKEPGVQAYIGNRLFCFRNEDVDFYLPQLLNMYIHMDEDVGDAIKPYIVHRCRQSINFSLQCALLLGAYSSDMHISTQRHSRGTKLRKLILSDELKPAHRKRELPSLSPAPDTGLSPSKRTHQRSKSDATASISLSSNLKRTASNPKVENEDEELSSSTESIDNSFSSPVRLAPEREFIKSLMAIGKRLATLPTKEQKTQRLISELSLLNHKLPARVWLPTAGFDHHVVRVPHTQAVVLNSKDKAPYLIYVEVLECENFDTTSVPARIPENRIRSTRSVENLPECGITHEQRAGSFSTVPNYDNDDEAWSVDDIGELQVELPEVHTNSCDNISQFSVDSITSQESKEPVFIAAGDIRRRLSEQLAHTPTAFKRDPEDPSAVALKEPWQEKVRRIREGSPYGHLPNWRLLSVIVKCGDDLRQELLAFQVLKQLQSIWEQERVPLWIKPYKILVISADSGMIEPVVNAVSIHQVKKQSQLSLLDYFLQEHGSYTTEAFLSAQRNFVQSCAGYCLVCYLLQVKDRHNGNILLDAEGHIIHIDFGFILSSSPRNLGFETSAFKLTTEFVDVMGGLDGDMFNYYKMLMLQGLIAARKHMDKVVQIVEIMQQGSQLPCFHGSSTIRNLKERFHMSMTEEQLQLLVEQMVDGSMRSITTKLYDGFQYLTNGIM
Sequence of LIM domain kinase 1 (Homo sapiens) (P53667 whole entry, looked up, the tested form may be a part): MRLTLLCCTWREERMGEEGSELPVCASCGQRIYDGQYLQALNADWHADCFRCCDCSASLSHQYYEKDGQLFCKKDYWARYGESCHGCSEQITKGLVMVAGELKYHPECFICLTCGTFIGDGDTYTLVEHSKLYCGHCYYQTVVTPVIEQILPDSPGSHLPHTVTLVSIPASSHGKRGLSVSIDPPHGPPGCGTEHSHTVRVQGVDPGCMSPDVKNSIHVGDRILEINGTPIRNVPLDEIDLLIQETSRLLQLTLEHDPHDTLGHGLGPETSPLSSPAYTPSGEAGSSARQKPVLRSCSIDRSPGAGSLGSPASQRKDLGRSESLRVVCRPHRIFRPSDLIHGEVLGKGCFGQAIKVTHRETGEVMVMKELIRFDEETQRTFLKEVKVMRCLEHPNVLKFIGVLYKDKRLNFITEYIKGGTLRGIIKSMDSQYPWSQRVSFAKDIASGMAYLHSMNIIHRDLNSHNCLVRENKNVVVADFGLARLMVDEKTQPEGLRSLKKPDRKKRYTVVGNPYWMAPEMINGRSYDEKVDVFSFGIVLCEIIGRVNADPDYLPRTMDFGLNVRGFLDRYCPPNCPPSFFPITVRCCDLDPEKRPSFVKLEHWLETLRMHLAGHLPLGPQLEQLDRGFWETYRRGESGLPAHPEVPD
Sequence of Serine/threonine-protein kinase 4 (Homo sapiens) (Q13043 whole entry, looked up): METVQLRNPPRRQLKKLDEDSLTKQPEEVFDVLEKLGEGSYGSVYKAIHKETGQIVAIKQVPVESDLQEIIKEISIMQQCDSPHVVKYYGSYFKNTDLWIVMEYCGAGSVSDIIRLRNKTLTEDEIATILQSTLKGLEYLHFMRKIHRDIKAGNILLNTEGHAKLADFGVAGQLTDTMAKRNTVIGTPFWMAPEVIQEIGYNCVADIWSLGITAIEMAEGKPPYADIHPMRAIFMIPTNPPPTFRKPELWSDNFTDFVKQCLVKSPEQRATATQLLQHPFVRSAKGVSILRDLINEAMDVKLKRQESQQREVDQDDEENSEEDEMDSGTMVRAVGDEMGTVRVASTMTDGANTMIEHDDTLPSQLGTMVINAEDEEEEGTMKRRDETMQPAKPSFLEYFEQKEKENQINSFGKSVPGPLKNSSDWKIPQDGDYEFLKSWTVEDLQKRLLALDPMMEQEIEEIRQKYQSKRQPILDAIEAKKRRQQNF
Sequence of Serine/threonine-protein kinase Nek4 (Homo sapiens) (P51957 whole entry, looked up): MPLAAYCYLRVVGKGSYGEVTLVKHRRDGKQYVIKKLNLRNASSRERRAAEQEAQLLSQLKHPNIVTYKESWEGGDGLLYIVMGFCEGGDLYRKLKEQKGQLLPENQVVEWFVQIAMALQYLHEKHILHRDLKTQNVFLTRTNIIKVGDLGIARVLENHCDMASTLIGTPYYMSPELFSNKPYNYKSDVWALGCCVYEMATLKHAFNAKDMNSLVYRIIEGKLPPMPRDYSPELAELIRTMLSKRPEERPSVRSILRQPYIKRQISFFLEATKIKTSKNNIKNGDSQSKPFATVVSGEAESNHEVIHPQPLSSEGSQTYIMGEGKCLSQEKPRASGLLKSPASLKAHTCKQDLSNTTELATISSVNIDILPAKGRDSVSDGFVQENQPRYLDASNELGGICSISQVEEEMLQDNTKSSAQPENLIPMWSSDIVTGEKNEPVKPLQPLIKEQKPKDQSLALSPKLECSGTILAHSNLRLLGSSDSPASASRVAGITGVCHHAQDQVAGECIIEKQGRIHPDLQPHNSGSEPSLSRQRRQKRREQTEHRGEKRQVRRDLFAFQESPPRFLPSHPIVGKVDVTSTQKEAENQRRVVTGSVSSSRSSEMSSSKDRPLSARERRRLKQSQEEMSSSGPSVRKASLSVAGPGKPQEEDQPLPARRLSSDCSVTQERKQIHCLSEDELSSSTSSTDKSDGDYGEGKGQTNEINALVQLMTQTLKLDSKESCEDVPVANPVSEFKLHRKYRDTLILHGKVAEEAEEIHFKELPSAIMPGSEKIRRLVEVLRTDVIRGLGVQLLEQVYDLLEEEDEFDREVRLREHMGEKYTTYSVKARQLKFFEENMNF

In the case of `CCN1CCN(Cc2ccc(NC(=O)c3ccc(C)c(/C=C/c4cnc5[nH]ccc5c4OC)c3)cc2C(F)(F)F)CC1`, the figures for the inhibition in assay [1] and in assay [2] were 9.1% and 11.6%, respectively.

On to `CCN1CCN(Cc2ccc(NC(=O)c3ccc(C)c(Oc4ccnc5[nH]ccc45)c3)cc2C(F)(F)F)CC1`, for which the inhibition in assay [3] was 23%; in assay [4] it was -0.3%; in [6], 0.1%. Besides, the inhibition entry in [5], in assay [7] and in assay [8] was “inactive” each time.

Turning to `CNc1cc(Oc2cc(C(=O)Nc3cc(N4CCN(C)CC4)cc(C(F)(F)F)c3)ccc2C)ncn1`, the inhibition is -3.8% in [9]; -7.5% in [10]; 9% in assay [11]; 12.8% in [12]; 43.4% in [13].
